Results published in BindingDB's records for doi:10.1021/jm960069a (University of Camerino, 1996).

Target: Alpha-1B adrenergic receptor (Mesocricetus auratus) (UniProt P18841)
Experiment: Binding affinity towards Alpha-1B adrenergic receptor hamster smooth muscle using [3H]prazosin as radioligand

Alpha-1B adrenergic receptor (Mesocricetus auratus), sequence (P18841 whole entry, looked up): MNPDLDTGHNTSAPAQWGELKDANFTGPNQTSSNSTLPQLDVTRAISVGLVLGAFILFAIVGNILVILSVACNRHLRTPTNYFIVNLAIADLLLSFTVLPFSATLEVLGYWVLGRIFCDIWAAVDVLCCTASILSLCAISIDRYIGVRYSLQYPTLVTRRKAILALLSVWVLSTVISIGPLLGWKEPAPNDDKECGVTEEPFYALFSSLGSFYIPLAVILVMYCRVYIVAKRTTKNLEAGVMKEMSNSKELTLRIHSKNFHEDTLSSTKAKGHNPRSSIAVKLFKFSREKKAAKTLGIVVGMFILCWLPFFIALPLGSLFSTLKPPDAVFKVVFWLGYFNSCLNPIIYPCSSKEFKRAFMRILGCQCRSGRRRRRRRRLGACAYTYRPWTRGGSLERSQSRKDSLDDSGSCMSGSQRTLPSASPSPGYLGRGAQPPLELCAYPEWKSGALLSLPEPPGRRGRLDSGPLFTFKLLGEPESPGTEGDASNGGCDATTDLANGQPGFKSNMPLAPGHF

Structure (SMILES) | Ki [nM]
COc1cccc(OC)c1OCCNC[C@@H]1Oc2ccccc2O[C@H]1c1ccc(C)cc1 [[2-(2,6-Dimethoxy-phenoxy)-ethyl]-((2S,3S)-3-p-tolyl-2,3-dihydro-benzo[1,4]dioxin-2-ylmethyl)-amine] | 21.1
COc1cccc(OC)c1OCCNCC1Oc2ccccc2OC1c1ccc(C)cc1 (configuration not stated) [[2-(2,6-Dimethoxy-phenoxy)-ethyl]-(3-p-tolyl-2,3-dihydro-benzo[1,4]dioxin-2-ylmethyl)-amine] | 51.4
